Assay results from patent publication US7585893B2, “Anti-cancer composition comprising DMXAA or related compound” (Cancer Research Technology Limited, priority 2002, dated 2009).
Where “and” joins values, the source holds several entries; their conditions need not be identical. Equal entries are not always repeated. Where two headings read alike, the source gives them in different places.

Key:
[1] = tested on: HT29 human colon cancer cells; experiment: HT29 human colon carcinoma xenograft, oral dosing (Experiment 3); format: in vivo; details: HT29 xenograft in nude mice; 28 mg/kg oral, or 28 + 15 + 15 mg/kg at 0, 4, 8 h
Protocol: Nude mice were implanted with 5×10^6 HT29 human colon cancer cells, subcutaneously. […] Tumours were then measured using callipers every 2-3 days and volumes calculated. Comparative tumour growth curves are plotted with respect to those at the onset of treatment (relative tumour volume).

tumour = details: Zhao et al, cited from earlier work
tumour blood flow = details: Phase I clinical trials; well-tolerated doses; cited from earlier work
[2] = oral; Zhao et al; cited from earlier work
Colon 38 tumour = Colon 38 tumour growth delay, oral DMXAA (Experiments I and II); format: in vivo, C57B1/6 mice; details: for mice cured completely: 30+15+15 mg/kg orally at 0, 4, 8 h
Protocol: C57B1/6 mice from the Animal Resource Unit, University of Auckland, were bred and housed under conditions of constant temperature and humidity, with sterile bedding and food, according to institutional ethical guidelines. All mice were aged between 8 and 12 weeks.
DMXAA was synthesized as the sodium salt (Rewcastle et al (1990) Journal of National Cancer Institute 82:528-529). DMXAA sodium salt was dissolved in sterile water and was administered orally by gavage.
Colon 38 tumour fragments (˜1 mm^3) were implanted subcutaneously (s.c.) in the left flank of anaesthetized (sodium pentobarbital, 81 mg/kg) mice. The experiments were initiated when tumours were approximately 3-4 mm (approximately 20 mg mass) in diameter. Tumour-bearing mice were treated with drugs according to the administration schedule described before, and the tumours measured using calipers, three times weekly thereafter. Tumour volumes were calculated as O.52a^2b, where a and b are the minor and major axes of the tumour, respectively. For graphical representation the arithmetic means were calculated for each time point, counting cured tumours as zero volume.
Two groups of 5 mice were implanted with tumours. The treatment group received DMXAA according to the schedule shown, the control group received no DMXAA. The individual mice in each group were not marked, and so any one line of the spreadsheet data shown in Table 1 could be from any individual mouse of a particular group.
The data were normalised, to enable plotting of the average tumour growth beginning from a relative size of 1 (see FIG. 1).
This example was performed using four groups of mice. Group 1 (control, n=5) received no treatment. Group 2 (n=5) received two 15 mg/kg doses of DMXAA. Group 3 (n=5) received a single 30 mg/kg dose of DMXAA. Group 4 (n=6) received three doses of DMXAA in concentrations of 30+15+15 mg/kg. In this experiment tumours were all 14 mm^3 at the start of the experiment. Data were normalised by division by 14 to give size relative to initial size.
The tumour growth delay experiment was conducted using 2 drug regimes: untreated controls (n=5) and oral DMXAA (n=5) administered in 3 doses. The first dose (30 mg/kg), was administered at t=0 hours followed by two lower doses each of 15 mg/kg at t=4 hours and t=8 hours respectively. Tumour size was measured thrice weekly and the results normalised as described above. The results are shown in Table 1 (raw data), Table 2 (normalised data) and FIG. 1, Expt. I (plotted as a graph).
In this example, the tumour growth delay experiment was conducted using 4 drug regimes: untreated controls (Group 1, n=5); two 15 mg/kg doses of DMXAA separated by a 4 hour interval (Group 2, n=5); a single 30 mg/kg dose of DMXAA (Group 3, n=5); three doses of DMXAA in concentrations of 30+15+15 mg/kg administered at t=0, 4 and 8 hours respectively (Group 4, n=6). The 30 mg/kg dose is the maximum tolerated single dose Zhao et al (Cancer Chemother Pharmacol. 2002 January; 49(1):20-6). Tumour size was measured thrice weekly and the results normalised as described above. The results are shown in Table 3 (raw data), Table 4 (normalised data) and FIG. 1, Expt. II (plotted as a graph).

Cc1ccc2c(=O)c3cccc(CC(=O)O)c3oc2c1C [DMXAA, 5,6-dimethylxanthenone-4-acetic acid]
antitumour activity by the oral route [1]: induces antitumour activity | cures (tumour; intraperitoneal administration): 40% | cures (tumour; single dose orally administered): no cures | tumour blood flow (dynamic MRI) (tumour blood flow): significant reduction in tumour blood flow | maximum tolerated single dose [2]: 30 mg/kg | side effects of multiple dose strategy (Colon 38 tumour; 30+15+15 mg/kg orally): without the serious side effects | mice cured completely (Colon 38 tumour; Expt I, within 24 days): 4/5 | Tumor volume (Colon 38 tumour; Expt I, 30+15+15 mg/kg orally at 4 h intervals, 0 day, individual mice, 15 mg/kg): 6.3 mm^3 and 18.8 mm^3 (2×) and 14.1 mm^3 (2×) | Tumor volume (Colon 38 tumour; Expt II, 30 mg/kg orally single dose, 0 day): 14.0 mm^3 | tumour growth over time-course (Colon 38 tumour; Expt II, 2×15 mg/kg oral doses, 4 h interval): tumours continued to grow | Tumor volume (Colon 38 tumour; Expt II, 15 − 15 mg/kg orally, 4 h interval, 0 day): 14.0 mm^3 | mice cured completely (Colon 38 tumour; Expt II, within 17 days): 6/6 | Tumor volume (Colon 38 tumour; Expt II, 30 − 16 − 15 mg/kg orally, 0 day): 14.0 mm^3 | Tumor volume (Colon 38 tumour; Expt II, 30 − 16 − 15 mg/kg orally, 17 day): 0.0 mm^3 | Normalised tumour size (relative to initial size) (Colon 38 tumour; Expt II, oral 30 mg/kg single dose, day 0): 1 | Normalised tumour size (relative to initial size) (Colon 38 tumour; Expt II, oral 15 − 15 mg/kg, day 0): 1 | Normalised tumour size (relative to initial size) (Colon 38 tumour; Expt II, oral 30 − 15 − 15 mg/kg, day 0): 1 | Normalised tumour size (relative to initial size) (Colon 38 tumour; Expt II, oral 30 − 15 − 15 mg/kg, day 17): 0 | tumour growth over time-course (Colon 38 tumour; Expt II, single 30 mg/kg oral dose): tumours continued to grow
